Laboratory results published in a compilation of properties of binary mixtures (doi:10.2298/jsc190413047v).

Test: xn = mol fraction of the nth substance listed
Details: 100 kPa

O=C1CCCCO1 + CCCC[n+]1ccn(C)c1.O=S(=O)([N-]S(=O)(=O)C(F)(F)F)C(F)(F)F
electrical conductivity [S/m]
Details	293.15 K	298.15 K	303.15 K	308.15 K	313.15 K	318.15 K	323.15 K
x2 = 0.0532	0.167	0.18	0.195	–	0.225	0.244	–
x2 = 0.1004	0.395	–	–	–	0.553	0.595	0.636
x2 = 0.1504	–	0.658	–	0.779	0.848	0.924	–
x2 = 0.1999	0.655	0.725	0.797	0.87	0.952	–	–
x2 = 0.2988	0.67	0.744	0.822	–	0.984	1.07	1.16
x2 = 0.4006	–	–	0.741	0.818	0.905	0.99	1.08
x2 = 0.5005	0.522	–	0.669	0.749	0.827	0.92	1.01
x2 = 0.5999	0.411	–	0.559	0.637	0.72	0.815	0.928
x2 = 0.7214	0.385	0.453	0.532	–	0.697	0.789	–
x2 = 0.8475	–	0.418	0.495	0.575	0.658	0.754	0.858
x2 = 0.9003	0.34	0.412	0.484	0.563	0.646	0.745	0.846

CCCCCC[n+]1ccn(C)c1.O=S(=O)([N-]S(=O)(=O)C(F)(F)F)C(F)(F)F + O=C1CCCO1
electrical conductivity [S/m]
Details	x2 = 0	x2 = 0.1076	x2 = 0.2973	x2 = 0.4956	x2 = 0.6996	x2 = 0.8001	x2 = 0.8456	x2 = 0.9001	x2 = 0.9493
293.15 K	0.176	0.21	–	0.47	0.819	1.07	1.13	–	–
298.15 K	0.221	–	0.362	0.556	0.932	1.19	1.25	1.23	–
303.15 K	–	0.319	0.431	–	1.05	1.31	1.36	–	0.896
308.15 K	–	–	–	0.751	1.17	1.44	1.49	–	0.968
313.15 K	0.398	–	–	0.863	–	1.57	–	1.57	1.04
318.15 K	0.467	0.539	–	0.979	1.46	1.71	–	1.69	–
323.15 K	–	–	–	1.11	1.61	–	–	1.8	1.17

CCCC[n+]1ccn(C)c1.O=S(=O)([N-]S(=O)(=O)C(F)(F)F)C(F)(F)F + O=C1CCCCO1
x1 = 1
Details	electrical conductivity [S/m]
293.15 K	0.337
303.15 K	0.472
308.15 K	0.552
313.15 K	0.64
323.15 K	0.835

CC[n+]1ccn(C)c1.O=S(=O)([N-]S(=O)(=O)C(F)(F)F)C(F)(F)F + O=C1CCCO1
electrical conductivity [S/m]
Details	293.15 K	298.15 K	303.15 K	308.15 K	313.15 K	318.15 K	323.15 K
x2 = 0	–	0.915	–	–	–	1.51	1.75
x2 = 0.1009	0.905	1.04	1.18	1.32	1.49	1.67	1.89
x2 = 0.2073	1.05	–	–	1.48	1.65	–	–
x2 = 0.3005	–	1.32	–	1.61	–	1.96	2.19
x2 = 0.3897	1.29	1.45	1.61	1.76	1.92	2.11	2.34
x2 = 0.5101	–	1.63	–	1.95	2.12	–	2.53
x2 = 0.6	1.6	1.76	1.93	2.09	2.25	2.45	–
x2 = 0.7	1.73	1.9	–	2.23	2.4	2.59	2.81
x2 = 0.7994	1.77	1.94	–	–	2.42	–	2.79
x2 = 0.8498	1.75	1.9	–	2.19	2.35	2.51	2.71
x2 = 0.9005	–	1.72	1.85	1.98	–	2.25	2.4
x2 = 0.95	–	1.22	–	1.4	1.5	–	1.7

CCCC[N+]1(C)CCCC1.O=S(=O)([N-]S(=O)(=O)C(F)(F)F)C(F)(F)F + O=C1CCCO1
Details	electrical conductivity [S/m]	viscosity [mPa·s]
298.15 K, x2 = 0	0.277	76.7
298.15 K, x2 = 0.1075	0.329	58.5
298.15 K, x2 = 0.2019	0.394	44.4
298.15 K, x2 = 0.3004	0.468	34.2
298.15 K, x2 = 0.3996	0.554	24.5
298.15 K, x2 = 0.5044	0.726	16.91
298.15 K, x2 = 0.5999	0.953	12.03
298.15 K, x2 = 0.7009	1.24	8.13
298.15 K, x2 = 0.7997	1.47	5.31
298.15 K, x2 = 0.8509	1.55	–
298.15 K, x2 = 0.9	1.46	3.32
298.15 K, x2 = 0.9498	1.12	–
303.15 K, x2 = 0	0.338	61.7
303.15 K, x2 = 0.1075	0.381	47.8
303.15 K, x2 = 0.3004	0.545	28.4
303.15 K, x2 = 0.3996	0.654	20.78
303.15 K, x2 = 0.5044	0.818	14.5
303.15 K, x2 = 0.5999	1.08	10.43
303.15 K, x2 = 0.7009	1.37	7.18
303.15 K, x2 = 0.7997	1.63	4.78
303.15 K, x2 = 0.8509	1.72	–
303.15 K, x2 = 0.9	1.59	3.04
303.15 K, x2 = 0.9498	1.22	–
308.15 K, x2 = 0	0.412	50.5
308.15 K, x2 = 0.2019	0.545	30.6
308.15 K, x2 = 0.3996	0.758	17.56
308.15 K, x2 = 0.5044	0.92	12.58
308.15 K, x2 = 0.5999	1.21	9.19
308.15 K, x2 = 0.7009	1.52	6.39
308.15 K, x2 = 0.7997	1.8	4.35
308.15 K, x2 = 0.8509	1.89	–
308.15 K, x2 = 0.9	1.72	2.79
313.15 K, x2 = 0	0.491	41.7
313.15 K, x2 = 0.1075	0.538	32.9
313.15 K, x2 = 0.2019	0.621	26.1
313.15 K, x2 = 0.3004	0.736	20.38
313.15 K, x2 = 0.3996	0.865	15.37
313.15 K, x2 = 0.5044	1.02	11.12
313.15 K, x2 = 0.5999	1.34	8.16
313.15 K, x2 = 0.7997	1.97	3.96
313.15 K, x2 = 0.8509	2.06	–
313.15 K, x2 = 0.9	1.85	2.57
318.15 K, x2 = 0	0.579	34.7
318.15 K, x2 = 0.1075	0.616	27.6
318.15 K, x2 = 0.3004	0.812	17.43
318.15 K, x2 = 0.3996	0.971	13.26
318.15 K, x2 = 0.5044	1.15	9.7
318.15 K, x2 = 0.5999	1.45	7.2
318.15 K, x2 = 0.7009	1.83	5.14
318.15 K, x2 = 0.7997	2.14	3.6
318.15 K, x2 = 0.9	1.99	2.38
323.15 K, x2 = 0	0.672	29.5
323.15 K, x2 = 0.1075	0.713	23.1
323.15 K, x2 = 0.2019	0.785	19.22
323.15 K, x2 = 0.3996	1.08	11.55
323.15 K, x2 = 0.5044	1.28	8.62
323.15 K, x2 = 0.7997	2.31	3.31
323.15 K, x2 = 0.8509	2.4	–
323.15 K, x2 = 0.9	2.12	2.21
